Data: article PMC6148290, “Endogenous metabolites of vitamin E limit inflammation by targeting 5-lipoxygenase” (Nature Communications, 2018)

Columns and labels:
[1] = target: T1, 12-LO (Homo sapiens, UniProt P18054); assay: 12-LO product formation in A23187/AA-activated PMNL; format: cell-based; details: at 3 µM; mean ± s.e.m., n = 3; n.i. no inhibition
T1 construct: 12-HETE (12-LO product from platelets in PMNL preparations); endogenous in cells; host or cells: platelets contaminating human PMNL preparations
T1 sequence (P18054 1-663): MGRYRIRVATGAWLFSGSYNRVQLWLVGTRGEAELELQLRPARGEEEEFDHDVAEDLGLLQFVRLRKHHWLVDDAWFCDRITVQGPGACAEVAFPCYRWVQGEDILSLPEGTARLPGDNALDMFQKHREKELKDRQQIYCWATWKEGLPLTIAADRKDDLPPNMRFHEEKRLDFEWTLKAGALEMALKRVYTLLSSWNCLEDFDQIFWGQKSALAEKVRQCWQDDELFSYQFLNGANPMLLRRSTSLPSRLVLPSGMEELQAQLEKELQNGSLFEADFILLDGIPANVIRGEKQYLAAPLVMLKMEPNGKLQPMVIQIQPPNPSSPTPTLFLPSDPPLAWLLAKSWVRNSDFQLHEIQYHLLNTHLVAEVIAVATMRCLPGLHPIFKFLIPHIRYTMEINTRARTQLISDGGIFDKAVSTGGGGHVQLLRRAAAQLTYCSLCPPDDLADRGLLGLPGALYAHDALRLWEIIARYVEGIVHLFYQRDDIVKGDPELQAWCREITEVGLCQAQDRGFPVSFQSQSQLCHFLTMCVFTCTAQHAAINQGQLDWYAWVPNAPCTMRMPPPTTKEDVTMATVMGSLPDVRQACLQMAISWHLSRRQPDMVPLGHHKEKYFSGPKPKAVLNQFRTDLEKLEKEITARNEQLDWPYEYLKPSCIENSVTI
Protocol: (§1) Cells were washed and medium was exchanged. Freshly isolated PMNL (1 × 10^7) and stably transfected HEK-293 (1 × 10^6) cells were suspended in PBS pH 7.4 containing 1 mg/ml glucose and 1 mM CaCl2. […] A23187- and A23187/AA-treated PMNL and A23187/AA-treated HEK-293 (5-LO_wt), HEK-293 (5-LO_3W) and HEK-293 (5-LO_Arg101Asp) cells produced 135 ± 21, 636 ± 112, 300 ± 59, 133 ± 29, 55 ± 9 ng 5-LO products, respectively. PMNL synthesized 29 ± 6 ng 12-HETE and 97 ± 23 ng 15-HETE when challenged with A23187/AA. 5-LO products from monocytes were analyzed by UPLC-MS/MS.

[2] = system: peripheral blood mononuclear cells; assay: Cell viability of PBMC (MTT assay); format: cell-based, human; details: at 1 and 10 µM (one entry for both); 24 h; n.i. no inhibition
Protocol: The formazan product was solubilized with SDS (10% in 20 mM HCl), and absorbance was measured at 570 nm using a Multiskan Spectrum microplate reader (Thermo Fisher Scientific).

[3] = system: 15-LO; assay: 15-LO product formation in A23187/AA-activated PMNL; format: cell-based, human; details: at 3 µM; mean ± s.e.m., n = 3; n.i. no inhibition
Protocol: as §1

[4] = target: T2, 5-LO (Homo sapiens, UniProt P09917); assay: 5-LO product formation in activated PMNL; format: cell-based; set-up: Freshly isolated PMNL (1 × 10^7); endogenous in cells; host or cells: human PMNL freshly isolated from leukocyte concentrates; details: cell-based; mean ± s.e.m., n = 3; read-out: IC50, activated PMNL (5-LO)
T2 sequence (P09917 1-674): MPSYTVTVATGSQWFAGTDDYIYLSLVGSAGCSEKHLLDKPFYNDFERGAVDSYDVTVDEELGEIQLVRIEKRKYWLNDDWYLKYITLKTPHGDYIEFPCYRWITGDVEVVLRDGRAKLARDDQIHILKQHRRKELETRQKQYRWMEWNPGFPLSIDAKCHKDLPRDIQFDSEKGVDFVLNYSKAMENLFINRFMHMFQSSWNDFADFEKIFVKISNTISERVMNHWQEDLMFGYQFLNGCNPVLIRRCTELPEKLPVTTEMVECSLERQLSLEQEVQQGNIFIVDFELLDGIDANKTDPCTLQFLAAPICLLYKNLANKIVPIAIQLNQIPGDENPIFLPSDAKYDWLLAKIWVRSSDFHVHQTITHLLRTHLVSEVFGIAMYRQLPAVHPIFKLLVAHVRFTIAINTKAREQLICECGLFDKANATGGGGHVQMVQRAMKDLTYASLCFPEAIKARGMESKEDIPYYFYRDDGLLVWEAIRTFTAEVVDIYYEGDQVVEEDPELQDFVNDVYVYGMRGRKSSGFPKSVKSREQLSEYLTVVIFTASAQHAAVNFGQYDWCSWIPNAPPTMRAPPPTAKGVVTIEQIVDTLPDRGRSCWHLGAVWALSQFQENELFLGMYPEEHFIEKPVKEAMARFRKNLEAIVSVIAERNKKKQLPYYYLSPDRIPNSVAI
Description: Human PMNL, monocytes, PBMC, and platelets were freshly isolated from leukocyte concentrates. The protocols for experiments with human blood and blood cells were approved by the ethical commission of the Friedrich-Schiller-University Jena. […] PMNL were recovered from the pellet after hypotonic lysis of erythrocytes. Platelets were obtained from the supernatant and washed with PBS pH 5.9/0.9% NaCl (1:1). […]

[5] = target: T2, 5-LO; assay: Activity of purified human recombinant 5-LO (cell-free); format: biochemical; set-up: made in house; host or cells: E. coli Bl21 (DE3)
Protocol: E. coli Bl21 (DE3) cells were transformed with pT3–5LO plasmid to express human recombinant 5-LO, which was purified by affinity chromatography on an ATP-agarose column. In brief, E. coli was lysed in 50 mM triethanolamine/HCl pH 8.0 plus EDTA (5 mM), soybean trypsin inhibitor (60 µg/ml), phenylmethanesulphonyl fluoride (1 mM), dithiothreitol (1 mM), and lysozyme (1 mg/ml). After sonication (3 × 15 s), the homogenate was centrifuged at 10,000 × g for 15 min and the supernatant again at 40,000 × g for 70 min at 4 °C. The supernatant was applied to an ATP-agarose column (Sigma-Aldrich), and the column was washed with (i) PBS pH 7.4, 1 mM EDTA, (ii) 50 mM phosphate buffer pH 7.4, 0.5 M NaCl, 1 mM EDTA, and (iii) 50 mM phosphate buffer pH 7.4, 1 mM EDTA. 5-LO was eluted with 50 mM phosphate buffer pH 7.4, 1 mM EDTA, 20 mM ATP.
Purified 5-LO (0.5 µg) in PBS pH 7.4 containing EDTA (1 mM) and ATP (1 mM) was pre-incubated with LCMs for 10 min at 4 °C, pre-warmed for 30 s at 37 °C and 5-LO product formation was started by addition of AA (Sigma-Aldrich; 20 µM if not indicated otherwise) plus CaCl2 (2 mM). […] AA was added after incubation for 5 min on ice.

[6] = cell-free, mean ± s.e.m., n = 3, read-out: IC50, human recombinant 5-LO
[7] = human recombinant 5-LO, read-out: IC50 for 5-LO inhibition

Row | 12-LO product formation/PMNL, residual activity [1] | SMILES | 15-LO product formation/PMNL, residual activity [3] | IC50 [4] [µM] | IC50 [5, 6] [µM] | further results
1 | 74.5 ± 5.9 % of control | Cc1cc(O)cc2c1O[C@](C)(CCC[C@H](C)CCC[C@H](C)CCCC(C)C(=O)O)CC2 (stereo partly shown) [4d] | 121.6 ± 10.9 % of control |  |  | Cell viability/peripheral blood mononuclear cells, residual viability [2]: n.i.
2 | 87.2 ± 3.6 % of control | Cc1c(C)c2c(c(C)c1O)CCC(C)(CCC(=O)O)O2 (stereo not shown) [6a, 2,5,7,8-tetramethyl-2-(2′-carboxyethyl)-6-hydroxychroman] | n.i. |  |  | 
3 | 56.7 ± 3.0 % of control | Cc1c(C)c2c(c(C)c1O)CCC(C)(CCCC(C)C(=O)O)O2 (stereo not drawn) [5a, 3,4-dihydro-6-hydroxy-α,2,5,7,8-pentamethyl-2H-1-benzopyran-2-pentanoic acid] | n.i. |  |  | IC50 [5, 7]: 0.75 µM
4 | 70.0 ± 14.1 % of control | C/C(=C\CC/C(C)=C/CC[C@]1(C)CCc2c(C)c(O)cc(C)c2O1)CC/C=C(\C)C(=O)O [4f] | 186.1 ± 35.8 % of control |  |  | Cell viability/peripheral blood mononuclear cells, residual viability [2]: n.i.
5 | 72.6 ± 13.6 % of control | C/C(=C\CC/C(C)=C/CC[C@]1(C)CCc2c(C)c(O)c(C)c(C)c2O1)CC/C=C(\C)C(=O)O [4e] | 181.5 ± 26.5 % of control |  |  | Cell viability/peripheral blood mononuclear cells, residual viability [2]: n.i.
6 | 89.9 ± 4.2 % of control | Cc1c(O)cc2c(c1C)OC(C)(CCC(=O)O)CC2 (stereo not shown) [6c, 2,7,8-trimethyl-2-(2′-carboxyethyl)-6-hydroxychroman] | n.i. |  |  | 
7 | n.i. | Cc1cc(O)cc2c1OC(C)(CCC(=O)O)CC2 (stereo not shown) [6d, 2,8-dimethyl-2-(2′-carboxyethyl)-6-hydroxychroman] | n.i. |  |  | 

Second part, the compound before the results:

Row | SMILES | 12-LO product formation/PMNL, residual activity [1] | 15-LO product formation/PMNL, residual activity [3] | IC50 [4] [µM] | IC50 [5, 6] [µM] | further results
8 | CC(C)=CCC/C(C)=C/CC/C(C)=C/CC[C@]1(C)CCc2cc(O)c(C)c(C)c2O1 [1g] | 70.8 ± 2.3 % of control | n.i. | 132 ± 33 | 0.2 ± 0.06 | 
9 | C/C(=C\CC/C(C)=C/CC[C@]1(C)CCc2cc(O)c(C)c(C)c2O1)CCC=C(CO)CO [compound 9] |  |  |  |  | IC50 [5]: 0.11 µM
10 | C/C(=C\CC/C(C)=C/CC[C@]1(C)CCc2cc(O)cc(C)c2O1)CCC=C(CO)CO [compound 8] |  |  |  |  | IC50 [5]: 0.15 ± 0.04 µM
11 | CC(C)=CCC/C(C)=C/CC/C(C)=C/CC[C@]1(C)CCc2c(C)c(O)cc(C)c2O1 [1f] | 65.4 ± 6.1 % of control | n.i. | 95 ± 5 | 0.19 ± 0.03 | 
12 | CC(C)=CCC/C(C)=C/CC/C(C)=C/CC[C@]1(C)CCc2c(C)c(O)c(C)c(C)c2O1 [1e] | 88.9 ± 4.9 % of control | n.i. | 277 ± 90 | 0.33 ± 0.08 | 
13 | C/C(=C\CC/C(C)=C/CC[C@]1(C)CCc2cc(Oc3c(O)cc(C)c4c3CC[C@@](C)(CC/C=C(\C)CC/C=C(\C)CCC=C(CO)CO)O4)c(C)c(C)c2O1)CCC=C(CO)CO [compound 10, (δ,γ)-bi-O-amplexichromanol] |  |  |  |  | IC50 ([5]; purified human recombinant 5-LO, mean ± s.e.m., n = 3, read-out: IC50 (5-LO)): 0.4 ± 0.11 µM
14 | C/C(=C\CC/C(C)=C/CC/C(C)=C/CC[C@]1(C)CCc2c(C)c(O)cc(C)c2O1)CO [2f] | 57.8 ± 13.6 % of control | 78.9 ± 14.8 % of control | 0.38 ± 0.09 | 0.09 ± 0.03 | IC50 [5, 7]: < 0.1 µM
15 | C/C(=C\CC[C@]1(C)CCc2cc(O)cc(C)c2O1)CC/C=C(\C)CCCC(C)C(=O)O (stereo partly shown) [4l] |  |  |  |  | IC50 [5]: 0.17 ± 0.04 µM
16 | C/C(=C\CC/C(C)=C/CC/C(C)=C/CC[C@]1(C)CCc2c(C)c(O)c(C)c(C)c2O1)CO [2e] | 62.7 ± 15.2 % of control | 88.0 ± 17.0 % of control | 0.27 ± 0.1 | 0.11 ± 0.01 | 
